Assay: 24 h therapeutic monitoring and noncompartmental pharmacokinetics in chronic lymphocytic leukemia patients receiving IBR
Conditions: plasma; for concentration at 2 h: 2 h postdose; for concentration at 4 h: 4 h postdose; for concentration at 23 h: 23 h postdose; for concentration at 24 h: 24 h postdose; for k el / half-life / MRT last / MRT / Cmax / Tmax / AUCPEO AUC %Extrapolation Obs / AUCPEP AUC %Extrapolation Pred / AUMCIFO AUMC Infinity Obs / AUMCIFP AUMC Infinity Pred / AUMCLST AUMC to Last Nonzero Conc / AUMCPEO AUMC %Extrapolation Obs / AUMCPEP AUMC % Extrapolation Pred / TMAX Time of CMAX: steady state
[1] = human, oral, 420 mg, Conc., subj=1 (420 mg IBR per day)
[2] = human, oral, 420 mg, Patient 1, 420 mg IBR per day
[3] = human, oral, 420 mg, Patient 2, 420 mg IBR per day
[4] = human, oral, 420 mg/day, Conc., subj=2 (420 mg IBR per day)

Method: In order to provide a proof of concept, IBR and DIB were assayed in the plasma samples of three patients treated with IBR. […] The criteria for inclusion were (1) age of ≥18 years, (2) treatment ongoing with IBR for more than 10 days, and (3) no concurrent administration of medications undergoing CYP3A4 metabolism. The subjects gave their written informed consent. Each participant took either two or three 140 mg Imbruvica capsules, as per the therapeutic provision, in the presence of the recruiting clinician.
Blood samples were centrifuged at 3000 rpm for 10 min in a Hettich Universal 320R centrifuge (Auro-Science, Budapest, Hungary) at 10 °C. Plasma was separated and frozen at −70 °C until analysis was done within 2 weeks.

With Nc1ncnc2c1c(-c1ccc(Oc3ccccc3)cc1)nn2[C@@H]1CCCN(C(=O)C(O)CO)C1 (stereo partly drawn) [Dihydrodiol Ibrutinib, 1-[(3R)-3-[4-amino-3-(4-phenoxyphenyl)pyrazolo[3,4-d]pyrimidin-1-yl]piperidin-1-yl]-2,3-dihydroxypropan-1-one] the concentration at 2 h [1] was 185 nM, the concentration at 4 h [1] was 143 nM and the concentration at 23 h [1] was 41.3 nM. The concentration at 24 h [1] was 34.6 nM, the concentration at 0.5 h (human, oral, 420 mg, Conc., subj=2 (420 mg IBR per day), 0.5 h postdose) was 71.5 nM and the concentration at 1 h (human, oral, 420 mg, Conc., subj=2 (420 mg IBR per day), 1 h postdose) was 254 nM. The concentration at 2 h (human, oral, 420 mg, Conc., subj=2 (420 mg IBR per day)) was 227 nM, the k el (human, oral, 420 mg, LAMZ Lambda z, subj=1 (420 mg IBR per day)) was 1.9e-05 s⁻¹ and the k el (human, oral, 420 mg, LAMZ Lambda z, subj=2 (420 mg IBR per day)) was 3.6e-05 s⁻¹. It also gave a half-life (human, oral, 420 mg, LAMZHL Half-Life Lambda z, subj=1 (420 mg IBR per day)) of 608 min, a half-life (human, oral, 420 mg, LAMZHL Half-Life Lambda z, subj=2 (420 mg IBR per day)) of 321 min and an MRT last (human, oral, 420 mg, MRT0–24, Patient 1, 420 mg IBR per day) of 7.07 h. The MRT last (human, oral, 420 mg, MRT0–24, Patient 2, 420 mg IBR per day) was 4.6 h, the MRT (human, oral, 420 mg, MRTEVIFO MRT Extravasc Infinity Obs, subj=1 (420 mg IBR per day)) was 12.7 h and the MRT (human, oral, 420 mg, MRTEVIFO MRT Extravasc Infinity Obs, subj=2 (420 mg IBR per day)) was 5.65 h. The MRT (human, oral, 420 mg, MRTEVIFP MRT Extravasc Infinity Pred, subj=1 (420 mg IBR per day)) was 12.9 h, the MRT (human, oral, 420 mg, MRTEVIFP MRT Extravasc Infinity Pred, subj=2 (420 mg IBR per day)) was 5.63 h and the MRT (human, oral, 420 mg, MRTEVLST MRT Extravasc to Last Nonzero Conc, subj=1 (420 mg IBR per day)) was 7.07 h. It also gave an MRT (human, oral, 420 mg, MRTEVLST MRT Extravasc to Last Nonzero Conc, subj=2 (420 mg IBR per day)) of 4.6 h, a Cmax [2] of 185 nM and a Cmax [3] of 254 nM. For the same compound, the k el (human, oral, 420 mg, ke, Patient 1, 420 mg IBR per day) was 1.92e-05 s⁻¹, the k el (human, oral, 420 mg, ke, Patient 2, 420 mg IBR per day) was 3.61e-05 s⁻¹ and the half-life (human, oral, 420 mg, t1/2, Patient 1, 420 mg IBR per day) was 606 min. The half-life (human, oral, 420 mg, t1/2, Patient 2, 420 mg IBR per day) was 321 min, the Tmax [2] was 2 h and the Tmax [3] was 1 h. It also gave a concentration at 4 h [4] of 172 nM, a concentration at 23 h [4] of 14.6 nM and a concentration at 24 h [4] of 13.2 nM. For the same compound, the “AUCPEO AUC %Extrapolation Obs” value (subj=1 (420 mg IBR per day)) was 17.7444%, the “AUCPEP AUC %Extrapolation Pred” value (subj=1 (420 mg IBR per day)) was 18.5268% and the “AUMCIFO AUMC Infinity Obs” value (subj=1 (420 mg IBR per day)) was 36155.1204 h2*nmol/L. The “AUMCIFP AUMC Infinity Pred” value (subj=1 (420 mg IBR per day)) was 37213.6967 h2*nmol/L, the “AUMCLST AUMC to Last Nonzero Conc” value (subj=1 (420 mg IBR per day)) was 16593.9650 h2*nmol/L and the “AUMCPEO AUMC %Extrapolation Obs” value (subj=1 (420 mg IBR per day)) was 54.1034%. The “AUMCPEP AUMC % Extrapolation Pred” value (subj=1 (420 mg IBR per day)) was 55.4090%, the “TMAX Time of CMAX” value (subj=1 (420 mg IBR per day)) was 2.0000 h and the “AUCPEO AUC %Extrapolation Obs” value (subj=2 (420 mg IBR per day)) was 3.8711%. For the same compound, the “AUCPEP AUC %Extrapolation Pred” value (subj=2 (420 mg IBR per day)) was 3.8177%, the “AUMCIFO AUMC Infinity Obs” value (subj=2 (420 mg IBR per day)) was 14854.1469 h2*nmol/L and the “AUMCIFP AUMC Infinity Pred” value (subj=2 (420 mg IBR per day)) was 14807.8422 h2*nmol/L. The “AUMCLST AUMC to Last Nonzero Conc” value (subj=2 (420 mg IBR per day)) was 11625.7539 h2*nmol/L, the “AUMCPEO AUMC %Extrapolation Obs” value (subj=2 (420 mg IBR per day)) was 21.7340% and the “AUMCPEP AUMC % Extrapolation Pred” value (subj=2 (420 mg IBR per day)) was 21.4892%. The “TMAX Time of CMAX” value (subj=2 (420 mg IBR per day)) was 1.0000 h, the “AUCPEO AUC %Extrapolation Obs” value (subj=3 (280 mg IBR per day)) was 4.3920% and the “AUCPEP AUC %Extrapolation Pred” value (subj=3 (280 mg IBR per day)) was 4.2856%. The “AUMCIFO AUMC Infinity Obs” value (subj=3 (280 mg IBR per day)) was 10834.3795 h2*nmol/L, the “AUMCIFP AUMC Infinity Pred” value (subj=3 (280 mg IBR per day)) was 10766.9678 h2*nmol/L and the “AUMCLST AUMC to Last Nonzero Conc” value (subj=3 (280 mg IBR per day)) was 8171.9228 h2*nmol/L. For the same compound, the “AUMCPEO AUMC %Extrapolation Obs” value (subj=3 (280 mg IBR per day)) was 24.5741%, the “AUMCPEP AUMC % Extrapolation Pred” value (subj=3 (280 mg IBR per day)) was 24.1019% and the “TMAX Time of CMAX” value (subj=3 (280 mg IBR per day)) was 2.0000 h. The “time after drug intake at which maximum concentrations were attained” value (three chronic lymphocyte leukemia patients) was at most 2 h.
